Data on three compounds can be found in paper PMC5159840, “A Clickable Analogue of Ketamine Retains NMDA Receptor Activity, Psychoactivity, and Accumulates in Neurons” (Scientific Reports, 2016).

In assay [1] the test system is T1, NMDA receptor (NMDAR).
T1 construct: gene Grin1; native receptor in dissociated cultures of rat hippocampal neurons
The assay can be described thus: whole-cell patch clamp of NMDA-evoked currents, concentration-response at -70 mV; also NMDAR EPSCs. It is filed as cell-based, Rattus norvegicus.

Assay [2] has as its system T1, NMDA receptor (NMDAR). Description: whole-cell patch clamp of NMDA-evoked currents, concentration-response at -70 mV. The format is cell-based, Rattus norvegicus.

For the compound `C#CCCCNC1(c2ccccc2Cl)CCCCC1=O` (racemic) [compound 1, A-NK], in assay [1], the midpoint of inhibition, the IC50, lay at 1800 nM. Consider `CNC1(c2ccccc2Cl)CCCCC1=O` (racemic) [ketamine], for which, in assay [2], the IC50 (in general, the midpoint of a concentration-inhibition curve) came to 400 nM.

The compound `NC1(c2ccccc2Cl)CCCCC1=O` (racemic) [norketamine] gave an IC50 in assay [1] of 2000 nM.
